Consider 20 compounds from BindingDB's records for doi:10.1021/jm990135j (Taisho Pharmaceutical, 1999).

Where a name gives a salt, the structure may show the parent alone.

The first assay has as its target Sigma-2 receptor (guinea pig). Nature of the assay: TIn vitro binding affinity at Sigma opioid receptor type 2 on guinea pig brain membranes by [3H]DTG displacement in the presence of […].
Consider `CCCCCC(Cc1ccc(OC)c(OCCc2ccccc2)c1)NCCC` (centres undefined) [[1-(4-Methoxy-3-phenethyloxy-benzyl)-hexyl]-propyl-amine; hydrochloride], for which the IC50 was determined as 110 nM.
On the same count and under the same terms, then `CCCC(Cc1ccc(OC)c(OCCc2ccccc2)c1)N(CCC)CCC` (centres undefined) [[1-(4-Methoxy-3-phenethyloxy-benzyl)-butyl]-dipropyl-amine], with 420 nM.
On the same count and under the same terms, then `CCCNC(CC)Cc1ccc(OC)c(OCCc2ccccc2)c1` (centres undefined) [[1-(4-Methoxy-3-phenethyloxy-benzyl)-propyl]-propyl-amine], with 330 nM; and `CCCCCCC(Cc1ccc(OC)c(OCCc2ccccc2)c1)NCCC` (centres undefined) [[1-(4-Methoxy-3-phenethyloxy-benzyl)-heptyl]-propyl-amine], with 230 nM.

Target in another assay: not listed separately
Nature of the assay: In vitro binding affinity at Sigma opioid receptors on guinea pig brain membranes by [3H]3-PPP displacement.
Compound `CCC(N)Cc1ccc(OC)c(OCCc2ccccc2)c1` (centres undefined) [1-(4-Methoxy-3-phenethyloxy-benzyl)-propylamine; hydrochloride] came in with an IC50 greater than 1000 nM.
The same measure, in the same setting: then `CCCCCCCC(N)Cc1ccc(OC)c(OCCc2ccccc2)c1` (centres undefined) [1-(4-Methoxy-3-phenethyloxy-benzyl)-octylamine], with 420 nM; and `CCCCCC(Cc1ccc(OC)c(OCCc2ccccc2)c1)NCCC` (centres undefined) [[1-(4-Methoxy-3-phenethyloxy-benzyl)-hexyl]-propyl-amine; hydrochloride], with 1.5 nM; and `COc1ccc(CC(C)N)cc1OCCc1ccccc1` (centres undefined) [2-(4-Methoxy-3-phenethyloxy-phenyl)-1-methyl-ethylamine; hydrochloride], with greater than 1000 nM.
Still for that read-out and setting: then `CCCC(Cc1ccc(OC)c(OCCc2ccccc2)c1)N(CCC)CCC` (centres undefined) [[1-(4-Methoxy-3-phenethyloxy-benzyl)-butyl]-dipropyl-amine], with 9.5 nM.
Same read-out and setting: then `CCCNC(C)Cc1ccc(OC)c(OCCc2ccccc2)c1` (centres undefined) [[2-(4-Methoxy-3-phenethyloxy-phenyl)-1-methyl-ethyl]-propyl-amine; hydrochloride], with 10 nM; and `CCCNC(CC)Cc1ccc(OC)c(OCCc2ccccc2)c1` (centres undefined) [[1-(4-Methoxy-3-phenethyloxy-benzyl)-propyl]-propyl-amine], with 8 nM.
`CCCCCCC(Cc1ccc(OC)c(OCCc2ccccc2)c1)N(CCC)CCC` (centres undefined) [[1-(4-Methoxy-3-phenethyloxy-benzyl)-heptyl]-dipropyl-amine] showed an IC50 of 150 nM.
In turn, `CCCCC(Cc1ccc(OC)c(OCCc2ccccc2)c1)N(CCC)CCC` (centres undefined) [[1-(4-Methoxy-3-phenethyloxy-benzyl)-pentyl]-dipropyl-amine] had an IC50 of 29 nM.
Same read-out and setting: then `CCCCCCCCC(N)Cc1ccc(OC)c(OCCc2ccccc2)c1` (centres undefined) [1-(4-Methoxy-3-phenethyloxy-benzyl)-nonylamine], with greater than 1000 nM; and `CCCN(CCC)C(C)Cc1ccc(OC)c(OCCc2ccccc2)c1` (centres undefined) [[2-(4-Methoxy-3-phenethyloxy-phenyl)-1-methyl-ethyl]-dipropyl-amine], with 12 nM; and `CCCCC(N)Cc1ccc(OC)c(OCCc2ccccc2)c1` (centres undefined) [1-(4-Methoxy-3-phenethyloxy-benzyl)-pentylamine], with 160 nM.
The same measure, in the same setting: then `CCCCCCCCC(Cc1ccc(OC)c(OCCc2ccccc2)c1)N(CCC)CCC` (centres undefined) [[1-(4-Methoxy-3-phenethyloxy-benzyl)-nonyl]-dipropyl-amine], with greater than 1000 nM; and `CCCCCCCC(Cc1ccc(OC)c(OCCc2ccccc2)c1)N(CCC)CCC` (centres undefined) [[1-(4-Methoxy-3-phenethyloxy-benzyl)-octyl]-dipropyl-amine], with 230 nM.
The same measure, in the same setting: then `CCCCCCCCC(Cc1ccc(OC)c(OCCc2ccccc2)c1)NCCC` (centres undefined) [[1-(4-Methoxy-3-phenethyloxy-benzyl)-nonyl]-propyl-amine], with 170 nM.
As for `CCCCCC(N)Cc1ccc(OC)c(OCCc2ccccc2)c1` (centres undefined) [1-(4-Methoxy-3-phenethyloxy-benzyl)-hexylamine; hydrochloride], the concentration for half-maximal inhibition (IC50) worked out at 110 nM.
Same read-out and setting: then `CCCCCCC(Cc1ccc(OC)c(OCCc2ccccc2)c1)NCCC` (centres undefined) [[1-(4-Methoxy-3-phenethyloxy-benzyl)-heptyl]-propyl-amine], with 9 nM.
On the same count and under the same terms, then `CCCCCCC(N)Cc1ccc(OC)c(OCCc2ccccc2)c1` (centres undefined) [1-(4-Methoxy-3-phenethyloxy-benzyl)-heptylamine], with 170 nM.

The target in a further assay is Sigma non-opioid intracellular receptor 1 (Cavia porcellus) (UniProt Q60492). Nature of the assay: In vitro binding affinity at Sigma opioid receptors on guinea pig brain membranes by [3H]-3-PPP displacement.
Chain of Sigma non-opioid intracellular receptor 1 (Cavia porcellus) (Q60492 whole entry, looked up): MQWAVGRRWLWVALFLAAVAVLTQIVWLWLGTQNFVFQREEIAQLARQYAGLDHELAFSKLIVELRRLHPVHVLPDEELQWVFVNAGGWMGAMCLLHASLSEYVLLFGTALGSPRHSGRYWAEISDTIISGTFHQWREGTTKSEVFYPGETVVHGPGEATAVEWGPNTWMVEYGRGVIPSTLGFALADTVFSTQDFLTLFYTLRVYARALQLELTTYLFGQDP
Consider `CCCC(N)(CCC)Cc1ccc(OC)c(OCCc2ccccc2)c1` [1-(4-Methoxy-3-phenethyloxy-benzyl)-1-propyl-butylamine; compound with (E)-but-2-enedioic acid], for which the IC50 is greater than 1000 nM.
Same read-out and setting: then `CCCCCC(Cc1ccc(OC)c(OCCc2ccccc2)c1)N(CCC)CCC` (centres undefined) [[1-(4-Methoxy-3-phenethyloxy-benzyl)-hexyl]-dipropyl-amine; hydrochloride], with 30 nM.

As a reminder, the IC50 is the point on the concentration scale where inhibition reaches its midpoint.
